Reference: PubChem BioAssay AID624367 (Broad Institute, 2012)
Calls of active or inactive are those of the source. No rule for the calls is given here.

test: viability loss in LCL cells – cell-based, plate reader, dry powder, set 2, cytotoxicity control, dose response (AID 624367); details: Lymphoblastoid cell line (LCL) cytotoxicity, plate reader; at 30 µM (top of the series)

Question: Which activity change, negative = cytotoxicity does the source give for `CN(C)C(=O)c1cccc(-c2cccc(-c3nc(C(=O)NCc4ccccc4)cc4c3[C@@H](CCO)N([S@](=O)C(C)(C)C)C4)c2)c1` here?
Answer: The activity change, negative = cytotoxicity was 8.17% (inactive).

Question: For `Cc1noc(C)c1S(=O)(=O)Nc1ccc2c(c1)C(=O)N([C@@H](C)CO)C[C@H](C)[C@H](CN(C)Cc1ccc(C(F)(F)F)cc1)OCCCC[C@@H](C)O2`, which activity change, negative = cytotoxicity is on record?
Answer: Its activity change, negative = cytotoxicity is -7.54% (inactive).

same assay, conditions: Lymphoblastoid cell line (LCL) cytotoxicity, plate reader; at 35 µM (top of the series)

Question: Which activity change, negative = cytotoxicity does the source give for `COc1ccccc1C#Cc1ccc([C@H]2[C@H](C#N)N(C(=O)C3CC3)[C@H]2CO)cc1` here?
Answer: Its activity change, negative = cytotoxicity is -4.85% (inactive).

Question: Which activity change, negative = cytotoxicity does the source give for `C[C@H]1CN([C@@H](C)CO)C(=O)c2c(c3ccccc3n2C)-c2ccccc2CO[C@H]1CN(C)C(=O)Nc1ccc(F)cc1` here?
Answer: The activity change, negative = cytotoxicity was 0.119% (inactive).

Question: For `CS(=O)(=O)Nc1ccc2c(c1)[C@H]1C[C@@H](CC(=O)NCC3CC3)O[C@@H](CO)[C@H]1O2`, which activity change, negative = cytotoxicity is on record?
Answer: Its activity change, negative = cytotoxicity is -1.05% (inactive).

Question: With `Cc1noc(C)c1S(=O)(=O)Nc1ccc2c(c1)C(=O)N([C@@H](C)CO)C[C@H](C)[C@@H](CN(C)Cc1ccc(C(F)(F)F)cc1)OCCCC[C@H](C)O2` as the compound, how does the activity change, negative = cytotoxicity read?
Answer: The activity change, negative = cytotoxicity was -1.76% (inactive).

Question: For `C[C@@H](NC(=O)C[C@H]1C=C[C@H](NC(=O)Cc2ccccn2)[C@@H](CO)O1)c1ccccc1`, which activity change, negative = cytotoxicity is on record?
Answer: The activity change, negative = cytotoxicity was -5.21% (inactive).

Question: For `Cc1noc(C)c1S(=O)(=O)Nc1ccc2c(c1)C(=O)N([C@@H](C)CO)C[C@@H](C)[C@H](CN(C)Cc1ccc(C(F)(F)F)cc1)OCCCC[C@@H](C)O2`, which activity change, negative = cytotoxicity is on record?
Answer: The activity change, negative = cytotoxicity was -6.19% (inactive).

Question: For `CN1C(=O)c2cc(NC(=O)c3ccc(C(F)(F)F)cc3)ccc2OC[C@@H]2O[C@H](CC(=O)NC3Cc4ccccc4C3)CC[C@H]21`, which activity change, negative = cytotoxicity is on record?
Answer: The activity change, negative = cytotoxicity was -1.04% (inactive).

Question: With `O=C(C[C@@H]1C[C@H]2c3cc(NC(=O)c4ccc5c(c4)OCO5)ccc3O[C@H]2[C@H](CO)O1)NC1CCCCC1` as the compound, how does the activity change, negative = cytotoxicity read?
Answer: Its activity change, negative = cytotoxicity is -16.7% (inactive).

Question: With `C[C@H](CO)N1C[C@H](C)[C@@H](CN(C)S(=O)(=O)c2cccc(F)c2)Oc2ncc(C#CC3CCCCC3)cc2C1=O` as the compound, how does the activity change, negative = cytotoxicity read?
Answer: Its activity change, negative = cytotoxicity is 4.17% (inactive).

Question: Which activity change, negative = cytotoxicity does the source give for `C[C@H](NC(=O)C[C@H]1C=C[C@H](NC(=O)Cc2ccccn2)[C@@H](CO)O1)c1ccccc1` here?
Answer: The activity change, negative = cytotoxicity was 0.993% (inactive).

Question: Which activity change, negative = cytotoxicity does the source give for `COc1ccc(S(=O)(=O)N(C)C[C@@H]2Oc3ncc(/C=C/c4ccccc4)cc3C(=O)N([C@@H](C)CO)C[C@H]2C)cc1` here?
Answer: Its activity change, negative = cytotoxicity is -4% (inactive).

Question: With `CN(C)C(=O)c1ccc(-c2cccc(-c3nc(C(=O)NCc4ccccc4)cc4c3[C@@H](CCO)N([S@](=O)C(C)(C)C)C4)c2)cc1` as the compound, how does the activity change, negative = cytotoxicity read?
Answer: Its activity change, negative = cytotoxicity is -1.5% (inactive).

Question: With `CCC(=O)N1Cc2cc(C(=O)Nc3nccs3)nc(-c3cccc(-c4ccccc4OC)c3)c2[C@H]1CCO` as the compound, how does the activity change, negative = cytotoxicity read?
Answer: Its activity change, negative = cytotoxicity is -2.48% (inactive).

Question: With `CCCNC(=O)c1cc2c(c(-c3cccc(-c4cccc(F)c4)c3)n1)[C@H](CCO)N([S@@](=O)C(C)(C)C)C2` as the compound, how does the activity change, negative = cytotoxicity read?
Answer: The activity change, negative = cytotoxicity was -1.43% (inactive).

Question: Which activity change, negative = cytotoxicity does the source give for `N#C[C@H]1N[C@H](CO)[C@H]1c1ccc(C#Cc2ccccc2F)cc1` here?
Answer: Its activity change, negative = cytotoxicity is -8.35% (inactive).

Question: For `Cc1noc(C)c1S(=O)(=O)Nc1ccc2c(c1)C(=O)N([C@H](C)CO)C[C@@H](C)[C@H](CN(C)Cc1ccc(C(F)(F)F)cc1)OCCCC[C@@H](C)O2`, which activity change, negative = cytotoxicity is on record?
Answer: The activity change, negative = cytotoxicity was -9.24% (inactive).

Question: Which activity change, negative = cytotoxicity does the source give for `CN(C)c1ccc2c(c1)[C@@H]1C[C@@H](CC(=O)NCc3ccc(Oc4ccccc4)cc3)O[C@H](CO)[C@@H]1O2` here?
Answer: Its activity change, negative = cytotoxicity is 4.68% (inactive).

Question: With `CO[C@@H]1CN(C)C(=O)c2ccc(NC(C)=O)cc2OC[C@@H](C)N(Cc2ccccc2F)C[C@H]1C` as the compound, how does the activity change, negative = cytotoxicity read?
Answer: The activity change, negative = cytotoxicity was 2.23% (inactive).

Question: Which activity change, negative = cytotoxicity does the source give for `Cc1noc(C)c1S(=O)(=O)Nc1ccc2c(c1)C(=O)N([C@@H](C)CO)C[C@H](C)[C@H](CN(C)Cc1ccc(C(F)(F)F)cc1)OCCCC[C@H](C)O2` here?
Answer: Its activity change, negative = cytotoxicity is -5.45% (inactive).

Question: With `O=C(C[C@@H]1CC[C@@H]2[C@H](COC[C@@H](O)CN2Cc2ccc3c(c2)OCO3)O1)Nc1ccc(-c2ccccc2)cc1` as the compound, how does the activity change, negative = cytotoxicity read?
Answer: The activity change, negative = cytotoxicity was -8.48% (inactive).

Question: For `CN1C(=O)c2cc(NC(=O)Cc3cccs3)ccc2OC[C@@H]2O[C@H](CC(=O)NCc3ccc(-c4ccccc4)cc3)CC[C@H]21`, which activity change, negative = cytotoxicity is on record?
Answer: The activity change, negative = cytotoxicity was -7.27% (inactive).
